Laboratory results published in publication PMC2719696, “Kinetics and Cellular Site of Glycolipid Loading Control the Outcome of Natural Killer T Cell Activation” (Immunity, 2009).

Tested on: splenocytes
Assay: MβCD treatment of glycolipid-pulsed DCs, stimulation of autologous splenocytes in vitro
Format: cell-based, C57BL/6 mice
Settings: DCs pulsed 18 hr, 10 mM MβCD 15 min, 24 hr culture
Procedure: Figure 7 Functional Consequences of Membrane Lipid Raft Association of Glycolipid-Loaded CD1d Molecules (A) C57BL/6 BMDCs were pulsed for 18 hr with the indicated glycolipids, washed, and incubated for 15 min in medium alone (hatched bars) or medium containing 10 mM MβCD (solid bars). Cells were then fixed (1% paraformaldehyde) and used for stimulating autologous splenocytes for 24 hr, after which supernatant concentrations of IFN-γ and IL-4 were measured. Dotted lines indicate the background levels of cytokines in cultures with BMDC pulsed with vehicle only. Means and standard deviations for triplicate cultures are shown, and results are representative of three experiments. ^∗∗p < 0.01 (ANOVA, Bonferroni post-test). (B) Effect of MβCD on in vivo presentation of αGalCer analogs. Splenic DCs were pulsed ex vivo with the indicated glycolipids for 18 hr and then incubated for 15 min in medium without (−, hatched bars) or with 10 mM MβCD (+, solid bars). After extensive washing, the cells were injected i.p. into naive C57BL/6 mice (10^6 cells/mouse). Serum was assayed for IL-4 at 2 hr and for IFN-γ at 24 hr postinjection. Data shown are means and standard deviations for pooled data from two experiments that had three mice per group. ^∗∗p < 0.01 (ANOVA, Bonferroni post-test); NS, not significant (p > 0.05).
For in vitro stimulation, murine iNKT hybridomas at 5 × 10^4 cells/well in 96-well plates were stimulated with an equal number of either JAWS II cells or transfected A20 cells in complete medium with glycolipids for 12 hr at 37°C, and levels of murine IL-2 secretion were determined. For some experiments, APCs were preincubated with glycolipids for 12 hr or fixed with paraformaldehyde (1% for 2 min at RT) prior to the addition of iNKT cell hybridomas. For in vitro stimulation of murine splenic iNKT cells, splenocytes from BALB/c or C57BL/6 mice were plated at 5 × 10^5 cells per well in complete medium in 96-well plates and stimulated with glycolipids for 48 hr at 37°C. Subsequently the levels of IL-4, IL-13, and IFN-γ in culture supernatants were quantified by capture ELISA. For assays with methyl-β-cyclodextrin (MβCD) treatment of APCs, we prepared splenic DCs with a CD11c^+ cell isolation kit from Miltenyi Biotech from mice that had been injected s.c. 14 days previously with 10^5 Flt3-ligand-secreting B16 melanoma cells to increase the yield ([Mach et al., 2000]). Purified CD11c^+ cells were cultured in complete medium for 18 hr with glycolipids (100 nM) as indicated, washed, and incubated at 37°C for 15 min in medium with or without 10 mM MβCD (Sigma-Aldrich) and subsequently fixed (1% paraformaldehyde) and cultured in 96-well plates at 2 × 10^5 cells/well with autologous splenocytes (4 × 10^5 cells per well). […]

| SMILES | effect of MβCD treatment of pulsed DCs on stimulation of IFN-γ production by splenocytes | effect of MβCD treatment of pulsed DCs on stimulation of IL-4 |
| --- | --- | --- |
| CCCCCCCCCCCCCCC(O)C(O)C(COC1OC(CO)C(O)C(O)C1O)NC(=O)CCCCCCCCC (stereo not shown) [αGalCer-C10:0] | unaffected by MβCD | – |
| CCCCCC=CCC=CCCCCCCCCCC(=O)NC(COC1OC(CO)C(O)C(O)C1O)C(O)C(O)CCCCCCCCCCCCCC (stereo not shown) [αGalCer-C20:2] | unaffected by MβCD | – |
| CCCCCCCCCCCCCCCCCCCCCCCCCC(=O)NC(COC1OC(CO)C(O)C(O)C1O)C(O)C(O)CCCCCCCCCCCCCC (stereo not shown) [αGalCer-C26:0, reference compound] | markedly reduced | no effect |
